Among the data in patent US6929927B2, “Method of evaluating antifungal agent” (Pola Chemical Industries Inc., priority 2000, dated 2005) are MIC values, retold here.

The test deals with Trichophyton mentagropytes TIMM 2789. In words: MIC by microdilution method in 96-well plates, inactivation of agents by lecithin and Tween 80. It counts as cell-based. The settings on record: TIMM2789, 168 h, 7 days. As for the experimental part: MIC (minimum inhibitory concentration) was measured by means of the microdilution method by using 96-well plates to investigate the inactivation of respective agents caused by lecithin and Tween 80. The following four media were used. That is, a Sabouraud liquid medium (SDB) as a base medium, a medium obtained by adding 0.7% Tween 80 to SDB, a medium obtained by adding 1% lecithin to SDB, and a medium obtained by adding 0.7% Tween 80 and 1% lecithin to SDB were used. The following agents were used. That is, lanoconazole, bifonazole, and terbinafine were used. The following test strain was used. That is, Trichophyton mentagropytes TIMM 2789 (available from Institute of Medical Mycology of Teikyo University), which is generally used for the animal infection experiment, was used. The cultivation was performed at 28° C. for 7 days, while the microbial concentration upon the inoculation was about 10^4 conidia/ml. After the cultivation, it was regarded that MIC (μg/ml) was represented by the minimum agent concentration of the plate on which no microbial growth was observed by visual observation.
For orientation: In broth dilution the organism is exposed to a series of concentrations in liquid medium.

The mark [1] stands for this setting: Sabouraud liquid medium (SDB), additive none, 28° C.

Each structure is given as a SMILES string. In brackets after ≈: the same amount, converted by molar mass.

A word on the MIC: it is the lowest concentration that inhibits growth of the organism. Lower therefore signals a more susceptible organism. For the molecule `N#C/C(=C1/SCC(c2ccccc2Cl)S1)n1ccnc1` (stereo not drawn) [Lanoconazole, lanoconazole], the MIC is 0.312 µg/mL (≈ 0.975 µM) (SDB with 0.7% Tween 80, 28° C.); 0.078 µg/mL (≈ 0.244 µM) (SDB with 1% lecithin, 28° C.); no more than 0.005 µg/mL under setting [1].
Consider `CN(C/C=C/C#CC(C)(C)C)Cc1cccc2ccccc12` [Terbinafine, terbinafine], for which the MIC was 0.312 µg/mL (≈ 1.07 µM) (SDB with 0.7% Tween 80, 28° C.); 0.078 µg/mL (≈ 0.268 µM) (SDB with 1% lecithin, 28° C.); no more than 0.005 µg/mL under setting [1].
In the case of `c1ccc(-c2ccc(C(c3ccccc3)n3ccnc3)cc2)cc1` (stereo not drawn) [Bifonazole, bifonazole], the MIC (SDB with 0.7% Tween 80, 28° C.) was greater than 25 µg/mL; the MIC (SDB with 1% lecithin, 28° C.) was greater than 25 µg/mL; the MIC under setting [1] came to 1.56 µg/mL (≈ 5.03 µM).
